The record followed here is patent US20120095062A1, “TRICYCLIC COMPOUNDS, COMPOSITIONS, AND METHODS” (Pfizer Inc., priority 2007, published 2012).

For test [1], the system named is IL-6, Human A549 lung epithelial cells. Nature of the test: IL-6 inhibition in IL-1β-stimulated A549 cells. Format: cell-based. To be noted: for IC50: A549, 20 h, A549 cells, 1 ng/mL IL-1β, 20 hours, read-out: IL-6 IC50; for inhibition: A549, A549 cells, Prednisolone (1 μM) = 100% inhibition control. As to the method:
Human A549 lung epithelial cells (American Type Culture Collection, Rockville, Md.) were cultured in Kaighn's F-12K medium with penicillin-streptomycin (10 U/mL) and 10% heat-inactivated fetal bovine serum (all from Invitrogen, Grand Island, N.Y.). A549 cells were plated at a density of 30,000 cells/well in 96-well plates and incubated overnight at 37° C. and with 5% CO2. The cells were serum-starved by replacing the growth medium with serum-free Kaighn's F-12K medium with penicillin-streptomycin (10 U/mL) and, again, incubating overnight at 37° C. and with 5% CO2. On the third day, the medium was replaced with fresh serum-free medium and the cells were incubated with or without compound (vehicle was DMSO at 0.1% maximum concentration) for approximately 1 hour and then stimulated with 1 ng/mL recombinant human IL-1β (R&D Systems, Minneapolis, Minn.) for 20 hours at 37° C. and with 5% CO2. Cell supernatants were collected for determination of IL-6 levels using MSD (Meso Scale Discovery, Gaithersburg, Md.) 96-well Single Spot plates as per the manufacturer's instructions. Plates were read with an MSD Sector Imager 6000. […] Vehicle was used to define the 0% inhibition control. Percent inhibition for each compound concentration, relative to these controls, was calculated using Excel (Microsoft, Redmond, Wash.). IC50 values were generated using GraFit 5.0 data analysis software (Erithacus Software Ltd., Surrey, UK).

The next test deals with TNFα, U937 cells. Nature of the test: TNFα inhibition in LPS-stimulated differentiated U937 cells. It counts as cell-based. To be noted: Homo sapiens. Further details: inhibition: dose or concentration left out as unconfirmed. As to the method:
Cells were differentiated to a monocyte/macrophage phenotype with phorbol 12-myristate 13-acetate (Sigma-Aldrich, St. Louis, Mo.), 20 ng/mL, overnight. […] Following recovery, the cells were scraped, counted, and plated in accordance to the experimental design prior to stimulation with LPS, as described below. U937 cells were differentiated and plated at a density of 200,000 cells/well in 96-well plates. […] Louis, Mo.) for four hours at 37° C. and with 5% CO2. Cell supernatants were collected for determination of TNFα levels using an in-house sandwich-type ELISA. Mouse anti-human TNFα monoclonal antibody (clone 28401.111) and biotinylated goat anti-human TNFα (R&D Systems, Minneapolis, Minn.) were used as the capture and detection antibodies, respectively. Streptavidin-horseradish peroxidase (HRP) (R&D Systems, Minneapolis, Minn.) and K-Blue Substrate/Red Stop (Neogen, Lexington, Ky.) were used as the detection system. Absorbance was measured at 650 nm. TNFα concentrations were interpolated from a human TNFα recombinant protein (R&D Systems, Minneapolis, Minn.) standard curve using a four parameter logistics model by Magellan 4.11 data analysis software (Tecan, Durham, N.C.). […] Vehicle was used to define the 0% inhibition control. Percent inhibition for each concentration of compound, relative to these controls, was calculated using Excel (Microsoft, Redmond, Wash.).

The next test concerns LPS-induced serum TNFα. Nature of the test: LPS-induced serum TNFα suppression, 28-day repeat dose mouse model. It counts as in vivo. To be noted: 672 h, mice, oral gavage 28 days.
For another test, the system named is Serum osteocalcin. The experiment in a line: Serum osteocalcin suppression, 28-day repeat dose mouse model. It counts as in vivo, mice. To be noted: Mus musculus, 672 h; mice, oral gavage 28 days, serum osteocalcin.
Another test deals with TNFα. Nature of the test: Ex vivo LPS-stimulated human whole blood, TNFα production. It counts as cell-based. To be noted: mean. As to the method: (§1) Venous blood from human donors was collected as 10 ml aliquots in tubes containing sodium heparin (BD Vacutainer from Becton Dickinson and Company, Franklin Lakes, N.Y.). Blood was added to sterile polystyrene round bottom 96-well tissue culture plates (Corning Costar) at 100 μl/well, omitting the outside wells. Media (RPMI Medium 1640 with L-glutamine, Invitrogen Corporation, Carlsbad, Calif.) was added to the blood in 90 μl aliquots for a total volume of 190 μl. Outside wells were filled with 200 μl of media. Blood was placed in a humidified 37° C. incubator with 5% CO2 while compounds were prepared (nearly 60 minutes).
(§2) Compounds were prepared from 10 mM stock solutions in dimethylsulfoxide (DMSO, Sigma-Aldrich). […] Final DMSO and ethanol concentrations in the assay were 0.1% and 1.5%. The samples were gently triturated twice to mix and replaced in the incubator. LPS stock (E. coli serotype 0111:84, Sigma-Aldrich), stored in aliquots of 100 μg/ml in RPMI at −20° C., was diluted 1/50 in RPMI to make a working stock solution. After 60 minutes of incubation, 10 μl of the prepared LPS working stock was added to the blood to a final concentration of 100 ng/ml, omitting wells to be used as negative control. The samples were again gently triturated and the plates incubated overnight for 22 hours. Following incubation, the blood was centrifuged at 1500×g for 5 minutes and the plasma removed to either freeze at −20° C. or assay for cytokine release.
(§3) IL-1β, IFNγ,IL-6, and TNFα protein levels were measured using Meso Scale assay kits (Meso Scale Discovery, Gaithersburg, Md.). Reagents were allowed to come to room temperature. Meso Scale plates were blocked with […] of human plasma/serum assay diluent with gentle shaking for 60 minutes at room temperature. Plates were washed 3× with wash buffer (PBS, Invitrogen Corporation, with 0.05% Tween-20, Sigma-Aldrich). Calibrators for standard curves were prepared in human plasma/serum assay diluent as a 1/5 serial dilution to achieve final concentrations ranging from 50000 pg/ml to 3.2 pg/ml. Samples and calibrators were added at 20 μl/well, then incubated at room temperature with gentle shaking for 90 minutes. Plates were again washed 3 times with wash buffer. Detection antibody was diluted in human plasma/serum antibody diluent to 1 μg/ml and added to the plate at 20 μl/well. Plates were incubated as before for 60 minutes and washed again. Read Buffer T (4×) was diluted 1:1 with mqH2O to 2 times concentration and 150 μl added to each well. Plates were analyzed on the SECTOR Imager 6000 (Meso Scale Discovery) to generate raw signal values.
Individual values were compared to positive and negative controls (vehicle treated blood with LPS and vehicle treated blood without LPS, respectively) to generate % inhibition. Triplicate values were averaged for each donor. The values for two donors were averaged (only one donor was used for IL-1β) and graphed using 4-parameter fit curves in the GraFit 5.0.11 application.

The next test relates to IFNγ. The experiment in a line: Ex vivo LPS-stimulated human whole blood, IFNγ production. It counts as cell-based. To be noted: mean. As to the method: as §1, §2, §3
(§4) IL-1β, IFNγ, IL-6, and TNFα sample values were verified to be within the calibrator standard curves. Individual values were compared to positive and negative controls (vehicle treated blood with LPS and vehicle treated blood without LPS, respectively) to generate % inhibition. Triplicate values were averaged for each donor. The values for two donors were averaged (only one donor was used for IL-1β) and graphed using 4-parameter fit curves in the GraFit 5.0.11 application.

A further test has as its system IL-1β. The experiment in a line: Ex vivo LPS-stimulated human whole blood, IL-1β production. Format: cell-based. To be noted: one donor. The method, then:
as §1, §2, §3, §4

The next test relates to IL-6. Nature of the test: Ex vivo LPS-stimulated human whole blood, IL-6 production. Format: cell-based. To be noted: mean. As to the method:
as §1, §2, §3, §4

Where [2] appears, read: U-937, 4 h, U937 cells, 100 ng/mL LPS, four hours, read-out: TNFα IC50.

SMILES strings stand for the structures. Counter-ions that a name gives are not always drawn. Like-named read-outs stand apart in the source and are kept apart here.

For the molecule `Cc1ncccc1NC(=O)c1ccc2c(c1)CC[C@@H]1C[C@@](OP(=O)(O)O)(C(F)(F)F)CC[C@@]21Cc1ccccc1` [Example 2, (2R,4αS,10αR)-4α-benzyl-7-((2-methylpyridin-3-yl)carbamoyl)-2-(trifluoromethyl)-1,2,3,4,4α,9,10α-octahydrophenanthren-2-yl dihydrogen phosphate], the IC50 in test [1] stood at 60 nM.
In the case of `Cc1ncccc1NC(=O)c1ccc2c(c1)CC[C@@H]1C[C@@](O)(C(F)(F)F)CC[C@@]21Cc1ccccc1` [Example 1 HCL salt, (4βS,7R,8αR)-4β-benzyl-7-hydroxy-N-(2-methylpyridin-3-yl)-7-(trifluoromethyl)-4β,5,6,7,8,8α,9,10-octahydrophenanthrene-2-carboxamide], the IC50 was 0.4 nM in test [1]; 92.1 nM in the test with TNFα, U937 cells (setting [2]); 28.8 nM in the test on TNFα, U937 cells (U-937, value in brackets, footnote a: additional results that were found, read-out: TNFα IC50 (nM), additional result). The inhibition in test [1] is 76.9%; in the test with TNFα, U937 cells (U-937) it was 77.1%.
For the molecule `Cc1ncccc1NC(=O)c1ccc2c(c1)CC[C@@H]1C[C@@](O)(C(F)F)CC[C@@]21Cc1ccccc1` [Comparator H, (4βS,7R,8αR)-4β-benzyl-7-(difluoromethyl)-7-hydroxy-N-(2-methylpyridin-3-yl)-4β,5,6,7,8,8α,9,10-octahydrophenanthrene-2-carboxamide], in test [1], the IC50 stood at 4.3 nM and the inhibition is 64.9%. The same molecule had an ED50 in the test with LPS-induced serum TNFα of 0.23 mg/kg. The ED50 in the test on Serum osteocalcin was determined as 0.51 mg/kg.
With `Cc1ncccc1CNC(=O)c1ccc2c(c1)CC[C@@H]1C[C@@](O)(CCC(F)(F)F)CC[C@@]21Cc1ccccc1` [Comparator A, (4βS,7S,8αR)-4β-benzyl-7-hydroxy-N-((2-methylpyridin-3-yl)methyl)-7-(3,3,3-trifluoropropyl)-4β,5,6,7,8,8α,9,10-octahydrophenanthrene-2-carboxamide], the IC50 in test [1] is greater than 36.4 nM; in the test with TNFα, U937 cells (setting [2]), greater than 1000 nM. Further, the inhibition was 59.9% in test [1] and 35% in the test on TNFα, U937 cells (U-937). For the same molecule, the inhibition at 0.00137174 µM in the test with TNFα (1.371742 nM) came out at 18.1%; in the test on IFNγ (1.371742 nM), 18.1%; in the test on IL-1β (1.371742 nM), 32%; in the test on IL-6 (1.371742 nM), 1.46%. Besides, the inhibition at 0.00411523 µM was -0.861% in the test with TNFα (4.115226 nM), -1.7% in the test on IFNγ (4.115226 nM), 22% with IL-1β (4.115226 nM) and -4.34% with IL-6 (4.115226 nM). The inhibition at 0.0123457 µM with TNFα (12.34568 nM) was 0.0309%; in the test with IFNγ (12.34568 nM), 0.016%; in the test on IL-1β (12.34568 nM), 22.8%; with IL-6 (12.34568 nM) it was -1.13%. Besides, the inhibition at 0.037037 µM with TNFα (37.03704 nM) was -4.19%; in the test on IFNγ (37.03704 nM), -9.81%; in the test with IL-1β (37.03704 nM) it was 17.3%; in the test with IL-6 (37.03704 nM) it was -3.52%. The inhibition at 0.111111 µM in the test on TNFα (111.1111 nM) was -3.82%; with IFNγ (111.1111 nM), 8.74%; in the test on IL-1β (111.1111 nM) it was 8.6%; in the test on IL-6 (111.1111 nM), -3.5%. Further, the inhibition at 0.333333 µM in the test on TNFα (333.3333 nM) was -4.61%; in the test on IFNγ (333.3333 nM) it was -6.32%; in the test on IL-1β (333.3333 nM), 12.2%; with IL-6 (333.3333 nM) it was -2.83%. In addition, the inhibition at 1 µM with TNFα (1000 nM) is -5.44%; in the test with IFNγ (1000 nM), 16.5%; in the test on IL-1β (1000 nM), 15%; in the test with IL-6 (1000 nM), -0.89%. For the same molecule, the inhibition at 3 µM in the test with TNFα (3000 nM) is -3.04%; in the test on IFNγ (3000 nM), 28%; in the test with IL-1β (3000 nM), 16.4%; with IL-6 (3000 nM), -1.97%. Moreover, the median effective dose (ED50) is 60 mg/kg with LPS-induced serum TNFα and 37 mg/kg in the test with Serum osteocalcin.
As to `Cc1c(NC(=O)c2ccc3c(c2)CC[C@@H]2C[C@@](O)(C(F)(F)F)CC[C@@]32Cc2ccccc2)ccc[n+]1[O-]` [Comparator G], in test [1], the IC50 is 2.1 nM and the inhibition was 80.1%. In the test with LPS-induced serum TNFα, this molecule showed an ED50 of 2.9 mg/kg. Moreover, the ED50 with Serum osteocalcin came to 1.12 mg/kg.
For `Cc1ccncc1NC(=O)c1ccc2c(c1)CC[C@@H]1C[C@@](O)(C(F)(F)F)CC[C@@]21Cc1ccccc1` [Comparator D, (4βS,7R,8αR)-4β-benzyl-7-hydroxy-N-(4-methylpyridin-3-yl)-7-(trifluoromethyl)-4β,5,6,7,8,8α,9,10-octahydrophenanthrene-2-carboxamide], in that order: 1.3 nM, 79.8%, 1.47 mg/kg and 1.18 mg/kg.
